Test results published in ChEMBL document CHEMBL1201862, “PubChem BioAssay data set” (2004).
The source made the active and inactive calls.

Columns and labels:
[1] = viability of PTEN-deleted HCT116 cells – cell-based, HCT116 PTEN knockout, dose response (AID 1047); format: functional;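 further: HCT116 colon tumor cells with PTEN knocked out; cells exposed to compound for 60 hours before readout; potency for loss of cell viability measured by luminescence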
[2] = viability of HCT116 lacking mutant beta-catenin – cell-based, human colon tumor, dose response (AID 1045); format: functional;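 further: HCT116 colon tumor cells with beta catenin knocked out; cells exposed to compound for 60 hours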
[3] = Luminescence Cell-Based Dose Retest to Confirm Inhibitors of Cancer Stem Cells. [Related pubchem assays (depositor defined):AID2717, AID2721]; format: functional; conditions: Homo sapiens
[4] = target: T1, Microphthalmia-associated transcription factor (Homo sapiens, UniProt O75030); assay: reducers of TRPM1 reporter luminescence, concentration series – cell-based, SK-MEL-5, cherry-picked, set 3, MITF inhibitor project, dose response (AID 493073); format: functional;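 further: SK-MEL-5 melanoma cells with luciferase driven by the MITF target TRPM1 promoter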
T1 sequence (O75030 whole entry): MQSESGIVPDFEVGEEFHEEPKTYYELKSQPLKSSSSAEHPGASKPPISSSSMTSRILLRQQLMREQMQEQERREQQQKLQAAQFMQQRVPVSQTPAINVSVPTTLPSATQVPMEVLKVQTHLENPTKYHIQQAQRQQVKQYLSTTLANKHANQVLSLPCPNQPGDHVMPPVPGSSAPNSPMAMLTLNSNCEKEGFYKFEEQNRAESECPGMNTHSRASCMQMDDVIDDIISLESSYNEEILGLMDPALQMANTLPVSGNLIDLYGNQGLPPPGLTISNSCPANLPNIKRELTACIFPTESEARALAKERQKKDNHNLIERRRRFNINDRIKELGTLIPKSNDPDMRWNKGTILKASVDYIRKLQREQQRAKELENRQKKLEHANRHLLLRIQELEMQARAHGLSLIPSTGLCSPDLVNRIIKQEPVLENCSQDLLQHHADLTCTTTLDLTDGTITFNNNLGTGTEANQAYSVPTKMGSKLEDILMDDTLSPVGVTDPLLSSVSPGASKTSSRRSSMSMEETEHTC

A-375 [5] = assay: proliferation inhibition in MITF-low A375 cells – cell-based, cherry-pick samples, set 2, counter-screen for MITF modulator project, dose response (AID 540335); format: functional; conditions: Homo sapiens
BJ [6] = assay: BJ-TERT fibroblast viability loss – cell-based, RAS-independent, luminescence, dose response (AID 1933); format: functional; conditions: Homo sapiens
BJ [7] = assay: cells; format: functional, cell-based; conditions: Homo sapiens
BJ [8] = assay: BJ-TERT-LT-ST fibroblast viability loss – cell-based, RAS-independent, luminescence, dose response (AID 1935); format: functional; conditions: Homo sapiens;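 further: BJ fibroblasts immortalized with TERT plus LT and ST oncogenes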
[9] = DRD fibroblast viability loss – cell-based, non-viral oncogenic, luminescence, dose response (AID 1934); format: functional; conditions: Homo sapiens
Phospholipase A2 = Phospholipase A2 (Homo sapiens, UniProt P04054); assay: phospholipase A2 activity inhibition – biochemical, set 2, counter-screen for ATG4B inhibitor project, dose response (AID 588586); format: functional
Sequence of Phospholipase A2 (P04054 whole entry): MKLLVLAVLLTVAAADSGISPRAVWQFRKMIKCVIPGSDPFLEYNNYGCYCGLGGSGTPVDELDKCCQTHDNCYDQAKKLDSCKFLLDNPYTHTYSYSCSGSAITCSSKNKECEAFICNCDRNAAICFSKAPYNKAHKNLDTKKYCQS

Cysteine protease ATG4B = Cysteine protease ATG4B (Homo sapiens, UniProt Q9Y4P1); assay: autophagin-1 cysteine protease inhibition – biochemical, fluorescence, set 2, dose response (AID 588584); format: functional
Sequence of Cysteine protease ATG4B (Q9Y4P1 whole entry): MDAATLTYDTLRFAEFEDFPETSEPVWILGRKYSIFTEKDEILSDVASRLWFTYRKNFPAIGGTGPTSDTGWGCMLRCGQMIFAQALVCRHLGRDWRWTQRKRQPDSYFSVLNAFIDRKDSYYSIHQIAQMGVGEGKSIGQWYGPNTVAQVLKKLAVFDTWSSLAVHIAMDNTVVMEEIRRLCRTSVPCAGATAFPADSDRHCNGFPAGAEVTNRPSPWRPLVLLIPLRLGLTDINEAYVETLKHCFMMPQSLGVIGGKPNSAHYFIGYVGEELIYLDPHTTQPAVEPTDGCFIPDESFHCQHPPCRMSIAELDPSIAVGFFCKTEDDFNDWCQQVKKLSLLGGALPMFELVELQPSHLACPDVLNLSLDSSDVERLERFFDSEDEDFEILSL

[10] = reduction of Shn3 3'UTR-driven luciferase in osteoblasts – cell-based, Clone20 osteoblasts, firefly luciferase, cherry-picked, dose response (AID 624132); format: functional;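 further: firefly luciferase luminescence from reporter carrying the Shn3 3'UTR in osteoblasts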
[11] = non-specific 3'UTR reporter inhibition in Clone20-Shn3RL – cell-based, Renilla luciferase, cherry-picked, counter-screen for Shn3 inhibitor project, dose response (AID 624133); format: functional
[12] = system: Streptococcus sp. 'group A'; assay: Streptococcus pyogenes SK(-)GAS viability under kanamycin – luminescence, BacTiterGlo, confirmation, counter-screen for streptokinase expression inhibitor project, dose response (AID 1900); format: functional, organism-based
Streptokinase A = target: T2, Streptokinase A (Streptococcus pyogenes serotype M1, UniProt P10520); assay: viability-normalized secreted streptokinase activity reduction – plasminogen activation absorbance, OD405, dose response (AID 1914); format: functional, Streptococcus pyogenes M1 GAS;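 further: secreted streptokinase activity via plasminogen activation per viability signal from cell pellet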
T2 sequence (P10520 whole entry): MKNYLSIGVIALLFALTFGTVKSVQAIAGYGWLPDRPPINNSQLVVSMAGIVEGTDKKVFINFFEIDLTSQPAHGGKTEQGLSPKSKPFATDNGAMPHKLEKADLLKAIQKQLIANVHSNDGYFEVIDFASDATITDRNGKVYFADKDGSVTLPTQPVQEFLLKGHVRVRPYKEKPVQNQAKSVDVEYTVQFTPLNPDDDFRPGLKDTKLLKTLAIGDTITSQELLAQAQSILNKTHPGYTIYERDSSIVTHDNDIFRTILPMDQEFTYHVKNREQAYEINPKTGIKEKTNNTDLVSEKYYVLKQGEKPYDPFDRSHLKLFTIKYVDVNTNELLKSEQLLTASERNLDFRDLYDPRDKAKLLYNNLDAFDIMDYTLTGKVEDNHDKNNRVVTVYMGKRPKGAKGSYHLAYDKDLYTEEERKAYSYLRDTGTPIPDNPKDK

Streptococcus = assay: GAS UMAA2166 growth inhibition – luminescence, BacTiterGlo, counter-screen for streptokinase expression inhibitor project, dose response (AID 1915); format: functional, organism-based;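 further: potency for reduction of bacterial viability or growth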
[13] = target: Neurotensin receptor type 1 (Homo sapiens, UniProt P30989); format: functional;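 further: Image-based confirmatory dose-response assay measuring agonist activity at NTR1; NTR1-expressing U2OS osteosarcoma cells imaged for beta-arrestin GFP spot formation; agonist potency where compounds increase beta-arrestin recruitment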
Sequence of Neurotensin receptor type 1 (P30989 whole entry): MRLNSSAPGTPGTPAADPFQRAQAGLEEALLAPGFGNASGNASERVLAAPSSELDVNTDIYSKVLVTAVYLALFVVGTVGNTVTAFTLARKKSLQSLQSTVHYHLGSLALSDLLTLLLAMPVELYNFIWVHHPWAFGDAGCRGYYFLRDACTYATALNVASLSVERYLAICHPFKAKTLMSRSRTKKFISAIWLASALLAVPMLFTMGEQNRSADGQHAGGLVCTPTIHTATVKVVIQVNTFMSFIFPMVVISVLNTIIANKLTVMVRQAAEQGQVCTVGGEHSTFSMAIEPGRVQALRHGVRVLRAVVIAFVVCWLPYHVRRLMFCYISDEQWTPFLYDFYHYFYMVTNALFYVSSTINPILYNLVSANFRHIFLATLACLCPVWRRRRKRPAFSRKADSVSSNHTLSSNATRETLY

[14] = target: Delta-type opioid receptor (Homo sapiens, UniProt P41143); assay: Counterscreen for agonists of heterodimerization of the mu 1 (OPRM1) and delta 1 (OPRD1) opioid receptors: Luminescence-based cell-based high throughput dose response assay to identify agonists of OPRD1 homodimerization. [Related pubchem assays (depositor defined):AID504326, AID504355, AID504692, AID504904, AID504905]; format: functional
Sequence of Delta-type opioid receptor (P41143 whole entry): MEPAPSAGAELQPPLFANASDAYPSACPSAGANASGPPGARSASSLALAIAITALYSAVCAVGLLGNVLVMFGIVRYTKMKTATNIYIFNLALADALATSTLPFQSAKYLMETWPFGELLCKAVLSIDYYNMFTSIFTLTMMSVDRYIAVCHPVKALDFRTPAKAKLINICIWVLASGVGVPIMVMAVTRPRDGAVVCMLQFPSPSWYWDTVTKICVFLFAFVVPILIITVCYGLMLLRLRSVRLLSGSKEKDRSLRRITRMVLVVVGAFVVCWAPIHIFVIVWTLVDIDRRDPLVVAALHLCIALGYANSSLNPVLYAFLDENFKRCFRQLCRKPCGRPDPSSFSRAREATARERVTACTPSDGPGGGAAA

Mu-type opioid receptor = Mu-type opioid receptor (Homo sapiens, UniProt P35372); assay: Counterscreen for agonists of heterodimerization of the mu 1 (OPRM1) and delta 1 (OPRD1) opioid receptors: Luminescence-based cell-based high throughput dose response assay to identify agonists of OPRM1 homodimerization.; format: functional;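 further: U2OS cells expressing OPRM1 and beta-arrestin as split beta-galactosidase partners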
Sequence of Mu-type opioid receptor (P35372 whole entry): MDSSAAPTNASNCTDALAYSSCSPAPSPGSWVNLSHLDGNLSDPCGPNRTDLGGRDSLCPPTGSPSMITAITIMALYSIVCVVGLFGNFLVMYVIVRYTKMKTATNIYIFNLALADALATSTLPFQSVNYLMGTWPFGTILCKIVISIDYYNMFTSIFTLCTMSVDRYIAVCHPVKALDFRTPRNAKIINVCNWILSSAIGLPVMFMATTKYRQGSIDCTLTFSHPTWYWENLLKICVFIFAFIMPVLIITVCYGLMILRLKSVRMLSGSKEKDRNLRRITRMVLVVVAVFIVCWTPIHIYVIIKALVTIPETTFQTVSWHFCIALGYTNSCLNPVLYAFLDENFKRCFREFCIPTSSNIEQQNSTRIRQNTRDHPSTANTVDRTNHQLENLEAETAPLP

A-375 [15] = assay: MITF: Counter assay: A375 proliferation Measured in Cell-Based System Using Plate Reader - 2084-03_Inhibitor_Dose_DryPowder_Activity. [Related pubchem assays (depositor defined):AID488944]; format: functional; conditions: Homo sapiens
[16] = target: 5-hydroxytryptamine receptor 5A (Homo sapiens, UniProt P47898); assay: Counterscreen for agonists of OPRM1-OPRD1 heterodimerization: luminescence-based cell-based high throughput dose response assay to identify agonists of 5-hydroxytryptamine (serotonin) 5A receptor (HTR5A). [Related pubchem assays (depositor defined):AID504326, AID504355, AID504692, AID504904, AID504905]; format: functional
Sequence of 5-hydroxytryptamine receptor 5A (P47898 whole entry): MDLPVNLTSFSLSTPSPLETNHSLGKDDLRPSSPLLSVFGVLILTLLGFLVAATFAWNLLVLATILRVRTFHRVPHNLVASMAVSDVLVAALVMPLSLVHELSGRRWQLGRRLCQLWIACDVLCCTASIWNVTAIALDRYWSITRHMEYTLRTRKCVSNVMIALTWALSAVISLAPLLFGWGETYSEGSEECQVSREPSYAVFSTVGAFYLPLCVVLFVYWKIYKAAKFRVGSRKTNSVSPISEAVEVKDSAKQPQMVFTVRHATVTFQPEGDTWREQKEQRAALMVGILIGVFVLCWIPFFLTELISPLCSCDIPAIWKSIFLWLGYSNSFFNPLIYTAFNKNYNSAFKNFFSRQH

Melanocortin receptor 4 = Melanocortin receptor 4 (Homo sapiens, UniProt P32245); assay: inhibitors of MC4R cAMP signaling – cell-based, TR-FRET, biased antagonists, dose response (AID 602298); format: functional;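 further: antagonist potency against agonist-stimulated cAMP production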
Sequence of Melanocortin receptor 4 (P32245 whole entry): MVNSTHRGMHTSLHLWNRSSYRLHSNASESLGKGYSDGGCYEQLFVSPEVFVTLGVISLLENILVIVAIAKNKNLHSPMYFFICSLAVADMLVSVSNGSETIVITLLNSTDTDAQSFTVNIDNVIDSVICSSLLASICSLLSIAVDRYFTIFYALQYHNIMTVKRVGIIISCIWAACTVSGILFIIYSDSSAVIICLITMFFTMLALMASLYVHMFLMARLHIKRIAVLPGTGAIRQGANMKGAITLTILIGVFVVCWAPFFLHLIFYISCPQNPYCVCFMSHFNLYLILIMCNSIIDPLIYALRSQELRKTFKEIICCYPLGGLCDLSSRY

[17] = cAMP pathway inhibition in counterscreen cell line – TR-FRET cAMP detection, counter-screen for MC4R biased antagonist project, dose response (AID 602305); format: functional, cell-based;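 further: U2OS cells stimulated with forskolin near its EC80 as the cAMP inducer; potency is for inhibition of forskolin-stimulated cAMP signaling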

For `Cc1ccc(NC2=C(Cl)C(=O)c3ccccc3C2=O)cc1`, the EC50 [1] was 10.7 µM (active), the EC50 [2] was 4.88 µM (active) and the AC50 [3] was 1.17 µM (active). The AC50 [4] was 5.25 µM (active) and the AC50 (A-375 [5]) was 12.6 µM (active).
In the case of `O=C(OCCN1C(=O)c2cccc3c(N4CCOCC4)ccc(c23)C1=O)c1ccccc1Cl`, the EC50 (BJ [6]) is reported as 17.2 µM (active), the EC50 (BJ [7]) is reported as 21.5 µM (active) and the EC50 (BJ [8]) is reported as > 150 µM (inconclusive). For the same compound, the EC50 [9] was 18.8 µM (active), the IC50 (Phospholipase A2) was > 80 µM (inactive) and the IC50 (Cysteine protease ATG4B) was > 80 µM (inactive). The AC50 [10] was 3.06 µM (active) and the AC50 [11] was 6.25 µM (active).
For `CN(C)S(=O)(=O)c1ccc(-c2csc(N/N=C/c3ccc(O)cc3)n2)cc1`, the EC50 [12] was 8.68 µM (active), the EC50 (Streptokinase A) was > 150 µM (not active) and the EC50 (Streptococcus) was 13.3 µM (active). The EC50 [13] was 6.62 µM (active), the AC50 [4] was 4.6 µM (active) and the EC50 [14] was > 92.5 µM (inactive). The EC50 (Mu-type opioid receptor) was > 92.5 µM (inactive), the AC50 (A-375 [15]) was 30.8 µM (active) and the EC50 [16] was > 92.5 µM (inactive). The IC50 (Melanocortin receptor 4) was > 64.6 µM (inactive) and the IC50 [17] was > 64.6 µM (inactive).
